US11548870B2, “Compounds useful as inhibitors of helios protein” (Bristol-Myers Squibb Company, priority 2019, dated 2023)
Read-outs that look alike come from different tables or passages of the source.

Experiments:
Helios = molecular target: T1, Helios (Homo sapiens, UniProt Q96SW2+Q9UKS7); experiment: Helios Cellular Degradation Assay (flow cytometry, Helios-PE antibody staining, 72 h); assay type: cell-based; details: for Dmax: Jurkat, read-out: Helios Dmax
T1 construct: fluorescently labelled antibodies against Helios and Ikaros; endogenous in cells; host or cells: Jurkat cells
Method in brief: (§1)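 Jurkat cells (80,000/well, RPMI+10% FBS) were exposed to compound for 72 h at 37 °C, then fixed, permeabilized and co-stained for 1 h with Ikaros-Alexa488 and Helios-PE antibodies. Intracellular protein levels were read by flow cytometry.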

Ikaros = molecular target: T2, Ikaros (Homo sapiens, UniProt Q13422); experiment: Helios Cellular Degradation Assay, Ikaros readout (flow cytometry, Ikaros-Alexa488 antibody staining, 72 h); assay type: cell-based; details: for Dmax: Jurkat, read-out: Ikaros Dmax
T2 construct: fluorescently labelled antibodies against Helios and Ikaros; endogenous in cells; host or cells: Jurkat cells
Method in brief: as §1

[1] = Jurkat cells, 72 h incubation, flow cytometry

T2 sequence (Q96SW2 whole entry partner): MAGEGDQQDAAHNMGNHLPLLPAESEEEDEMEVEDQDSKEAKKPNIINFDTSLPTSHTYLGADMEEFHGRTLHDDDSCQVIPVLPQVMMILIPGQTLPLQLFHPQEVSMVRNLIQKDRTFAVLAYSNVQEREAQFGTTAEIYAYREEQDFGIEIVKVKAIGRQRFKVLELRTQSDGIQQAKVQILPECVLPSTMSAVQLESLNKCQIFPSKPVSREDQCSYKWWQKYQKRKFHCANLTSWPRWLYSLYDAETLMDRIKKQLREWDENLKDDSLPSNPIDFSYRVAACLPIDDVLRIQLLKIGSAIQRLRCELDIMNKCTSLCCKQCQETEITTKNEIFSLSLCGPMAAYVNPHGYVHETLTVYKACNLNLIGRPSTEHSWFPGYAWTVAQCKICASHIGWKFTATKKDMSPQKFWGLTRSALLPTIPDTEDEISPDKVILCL
T2 sequence (Q16531 whole entry partner): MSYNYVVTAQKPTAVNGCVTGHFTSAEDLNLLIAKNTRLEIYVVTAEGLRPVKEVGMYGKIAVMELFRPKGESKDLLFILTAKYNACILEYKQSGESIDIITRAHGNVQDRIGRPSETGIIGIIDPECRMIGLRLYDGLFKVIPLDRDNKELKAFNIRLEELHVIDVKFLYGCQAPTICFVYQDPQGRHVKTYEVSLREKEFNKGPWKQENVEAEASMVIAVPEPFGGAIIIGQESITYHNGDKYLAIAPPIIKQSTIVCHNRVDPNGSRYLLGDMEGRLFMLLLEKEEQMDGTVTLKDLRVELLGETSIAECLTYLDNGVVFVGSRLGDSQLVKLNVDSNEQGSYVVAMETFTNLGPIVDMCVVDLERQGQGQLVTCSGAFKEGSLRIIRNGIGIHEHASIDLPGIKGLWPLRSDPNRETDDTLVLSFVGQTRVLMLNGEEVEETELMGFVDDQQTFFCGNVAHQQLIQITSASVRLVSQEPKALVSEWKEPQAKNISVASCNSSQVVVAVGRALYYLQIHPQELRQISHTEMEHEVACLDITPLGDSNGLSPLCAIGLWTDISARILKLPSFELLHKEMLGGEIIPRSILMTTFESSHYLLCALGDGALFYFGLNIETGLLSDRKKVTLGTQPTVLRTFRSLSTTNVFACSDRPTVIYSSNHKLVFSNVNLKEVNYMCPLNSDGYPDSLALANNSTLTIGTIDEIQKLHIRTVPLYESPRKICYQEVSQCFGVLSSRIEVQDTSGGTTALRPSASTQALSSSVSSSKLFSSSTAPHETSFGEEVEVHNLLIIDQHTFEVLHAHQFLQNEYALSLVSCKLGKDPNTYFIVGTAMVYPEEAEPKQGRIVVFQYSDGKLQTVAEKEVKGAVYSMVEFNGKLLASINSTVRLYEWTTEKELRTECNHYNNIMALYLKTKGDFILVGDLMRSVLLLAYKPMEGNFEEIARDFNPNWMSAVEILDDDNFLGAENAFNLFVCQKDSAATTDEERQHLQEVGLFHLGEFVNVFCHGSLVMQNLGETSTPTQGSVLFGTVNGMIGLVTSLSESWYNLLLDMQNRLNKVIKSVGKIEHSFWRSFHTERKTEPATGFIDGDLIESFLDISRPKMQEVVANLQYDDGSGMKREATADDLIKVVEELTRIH
T2 sequence (Q13422 whole entry): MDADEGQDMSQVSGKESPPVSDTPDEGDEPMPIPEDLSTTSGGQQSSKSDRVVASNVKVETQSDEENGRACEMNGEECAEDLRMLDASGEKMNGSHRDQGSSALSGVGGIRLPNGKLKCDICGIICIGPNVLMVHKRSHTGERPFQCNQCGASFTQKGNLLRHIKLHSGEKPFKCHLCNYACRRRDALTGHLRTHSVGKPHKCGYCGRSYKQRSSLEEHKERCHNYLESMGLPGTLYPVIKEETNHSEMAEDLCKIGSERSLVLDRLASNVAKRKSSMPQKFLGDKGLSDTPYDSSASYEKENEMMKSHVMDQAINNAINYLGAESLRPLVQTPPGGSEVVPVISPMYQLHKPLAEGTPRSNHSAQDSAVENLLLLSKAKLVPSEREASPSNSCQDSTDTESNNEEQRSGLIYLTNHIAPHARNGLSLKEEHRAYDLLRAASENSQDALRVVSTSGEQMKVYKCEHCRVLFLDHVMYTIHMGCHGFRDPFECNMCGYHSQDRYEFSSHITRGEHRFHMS
T1 sequence (Q9UKS7 whole entry): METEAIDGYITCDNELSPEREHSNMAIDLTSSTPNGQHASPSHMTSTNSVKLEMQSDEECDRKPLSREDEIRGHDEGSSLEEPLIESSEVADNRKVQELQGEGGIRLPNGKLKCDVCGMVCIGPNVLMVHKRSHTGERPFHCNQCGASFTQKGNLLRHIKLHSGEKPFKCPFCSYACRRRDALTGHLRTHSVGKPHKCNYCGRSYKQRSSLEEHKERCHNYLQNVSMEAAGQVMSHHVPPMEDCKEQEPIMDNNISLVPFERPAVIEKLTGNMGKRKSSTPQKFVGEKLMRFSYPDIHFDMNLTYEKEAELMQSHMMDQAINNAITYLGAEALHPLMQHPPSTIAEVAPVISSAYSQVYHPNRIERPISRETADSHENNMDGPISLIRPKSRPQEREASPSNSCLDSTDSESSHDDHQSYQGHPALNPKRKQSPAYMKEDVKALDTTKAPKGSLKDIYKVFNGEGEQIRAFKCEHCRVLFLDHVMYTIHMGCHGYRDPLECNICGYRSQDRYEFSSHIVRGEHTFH
T1 sequence (Q96SW2 whole entry): as the sequence (Q96SW2 whole entry partner) above
T1 sequence (Q16531 whole entry partner): as the sequence (Q16531 whole entry partner) above

DC50 (Helios; [1])	Dmax (Helios; [1])	DC50 (Ikaros; [1])	Dmax (Ikaros; [1])	SMILES	Dmax (Helios)	Dmax (Ikaros)
84 nM	62%	> 10 µM	0%	C[C@@H](c1ccccc1)N(C)Cc1ccnc(-c2ccc3c(c2)CN(C2CCC(=O)NC2=O)C3=O)c1 (stereo partly drawn) [Example 136, 3-(5-(4-((methyl((S)-1-phenylethyl)amino)methyl)pyridin-2-yl)-1-oxoisoindolin-2-yl)piperidine-2,6-dione]		
98 nM	67%	> 10 µM	8%	C[C@H](c1ccccc1)N(C)Cc1ccnc(-c2ccc3c(c2)CN(C2CCC(=O)NC2=O)C3=O)c1 (stereo partly drawn) [Example 137, 3-(5-(4-((methyl((R)-1-phenylethyl)amino)methyl)pyridin-2-yl)-1-oxoisoindolin-2-yl)piperidine-2,6-dione]		
37 nM	82%	> 10 µM	18%	O=C1CCC(N2Cc3cc(-c4cc(CN5CC[C@H](c6ccccc6)C5)ccn4)ccc3C2=O)C(=O)N1 (stereo partly drawn) [Example 138, 3-(1-oxo-5-(4-(((R)-3-phenylpyrrolidin-1-yl)methyl)pyridin-2-yl)isoindolin-2-yl)piperidine-2,6-dione]		
25 nM	91%	> 10 µM	3%	O=C1CCC(N2Cc3cc(-c4cc(CN5CC[C@@H](c6ccccc6)C5)ccn4)ccc3C2=O)C(=O)N1 (stereo partly drawn) [Example 139, 3-(1-oxo-5-(4-(((S)-3-phenylpyrrolidin-1-yl)methyl)pyridin-2-yl)isoindolin-2-yl)piperidine-2,6-dione]		
12 nM	76%	> 10 µM	22%	CN[C@@H]1CCCC[C@H]1N(C)Cc1ccnc(-c2ccc3c(c2)CN(C2CCC(=O)NC2=O)C3=O)c1 (stereo partly drawn) [Example 140, 3-(5-(4-((methyl((1R,2R)-2-(methylamino)cyclohexyl)amino)methyl)pyridin-2-yl)-1-oxoisoindolin-2-yl)piperidine-2,6-dione]		
46 nM	82%	> 10 µM	20%	O=C1CCC(N2Cc3cc(-c4cc(CN5CCC(c6ccccc6)CC5)ccn4)ccc3C2=O)C(=O)N1 (centres unmarked) [Example 141, 3-(1-oxo-5-(4-((4-phenylpiperidin-1-yl)methyl)pyridin-2-yl)isoindolin-2-yl)piperidine-2,6-dione]		
88 nM	83%	0.897 µM	52%	CN(Cc1ccnc(-c2ccc3c(c2)CN(C2CCC(=O)NC2=O)C3=O)c1)C(C)(C)c1ccccc1 (centres unmarked) [Example 142, 3-(5-(4-((methyl(2-phenylpropan-2-yl)amino)methyl)pyridin-2-yl)-1-oxoisoindolin-2-yl)piperidine-2,6-dione]		
40 nM	62%	> 10 µM	1%	O=C1CCC(N2Cc3cc(-c4cc(CN5CCCC(c6ccccc6)C5)ccn4)ccc3C2=O)C(=O)N1 (centres unmarked) [Example 143, 3-(1-oxo-5-(4-((3-phenylpiperidin-1-yl)methyl)pyridin-2-yl)isoindolin-2-yl)piperidine-2,6-dione]		
2020 nM	57%	> 10 µM	11%	NCc1ccnc(-c2ccc3c(c2)CN(C2CCC(=O)NC2=O)C3=O)c1 (centres unmarked) [Example 144, 3-{5-[4-(Aminomethyl)pyridin-2-yl]-1-oxo-2,3-dihydro-1H-isoindol-2-yl}piperidine-2,6-dione]		
67 nM	93%	> 10 µM	11%	CNCc1ccnc(-c2ccc3c(c2)CN(C2CCC(=O)NC2=O)C3=O)c1 (centres unmarked) [Example 145, 3-(5-{4-[(Methylamino)methyl]pyridin-2-yl}-1-oxo-2,3-dihydro-1H-isoindol-2-yl) piperidine-2,6-dione]		
> 10000 nM	3%	> 10 µM	5%	CN(Cc1ccc(S(=O)(=O)N(C)C)cc1)Cc1ccnc(-c2ccc3c(c2)CN(C2CCC(=O)NC2=O)C3=O)c1 (centres unmarked) [Example 146, 4-{[({2-[2-(2,6-Dioxopiperidin-3-yl)-1-oxo-2,3-dihydro-1H-isoindol-5-yl]pyridin-4-yl}methyl)(methyl)amino]methyl}-N,N-dimethylbenzene-1-sulfonamide]		
226 nM	74%	> 10 µM	4%	CN(Cc1ccc(F)cc1)Cc1ccnc(-c2ccc3c(c2)CN(C2CCC(=O)NC2=O)C3=O)c1 (centres unmarked) [Example 147, 3-(5-(4-(((4-fluorobenzyl)(methyl)amino)methyl)pyridin-2-yl)-1-oxoisoindolin-2-yl)piperidine-2,6-dione]		

Further lines, the compound ahead of its results:

SMILES	DC50 (Helios; [1])	Dmax (Helios; [1])	DC50 (Ikaros; [1])	Dmax (Ikaros; [1])	Dmax (Helios)	Dmax (Ikaros)
C[C@H](NCc1ccnc(-c2ccc3c(c2)CN(C2CCC(=O)NC2=O)C3=O)c1)c1ccccc1 (stereo partly drawn) [Example 123, 3-(1-oxo-5-(4-((((S)-1-phenylethyl)amino)methyl)pyridin-2-yl)isoindolin-2-yl) piperidine-2,6-dione]	7 nM	92%	> 10 µM	8%		
O=C1CCC(N2Cc3cc(-c4cc(CNCC5(O)CCCCC5)ccn4)ccc3C2=O)C(=O)N1 (centres unmarked) [Example 124, 3-(5-(4-((((1-hydroxycyclohexyl)methyl)amino)methyl)pyridin-2-yl)-1-oxoisoindolin-2-yl)piperidine-2,6-dione]	58 nM	95%	> 10 µM	11%		
C[C@@H]1CCCN1Cc1ccnc(-c2ccc3c(c2)CN(C2CCC(=O)NC2=O)C3=O)c1 (stereo partly drawn) [Example 125, 3-(5-(4-(((R)-2-methylpyrrolidin-1-yl)methyl)pyridin-2-yl)-1-oxoisoindolin-2-yl) piperidine-2,6-dione]	16 nM	93%	> 10 µM	8%		
CC1CC(NCc2ccnc(-c3ccc4c(c3)CN(C3CCC(=O)NC3=O)C4=O)c2)CCO1 (centres unmarked) [Example 126, 3-(5-(4-(((2-methyltetrahydro-2H-pyran-4-yl)amino)methyl)pyridin-2-yl)-1-oxoisoindolin-2-yl) piperidine-2,6-dione]	82 nM	99%	> 10 µM	22%		
O=C1CCC(N2Cc3cc(-c4cc(CN5CCC6(CC5)CC6)ccn4)ccc3C2=O)C(=O)N1 (centres unmarked) [Example 127, 3-(5-(4-((6-azaspiro[2.5]octan-6-yl)methyl)pyridin-2-yl)-1-oxoisoindolin-2-yl)piperidine-2,6-dione]	35 nM	84%	> 10 µM	6%		
O=C1CCC(N2Cc3cc(-c4cc(CNCCCCO)ccn4)ccc3C2=O)C(=O)N1 (centres unmarked) [Example 128, 3-(5-(4-(((4-hydroxybutyl)amino)methyl)pyridin-2-yl)-1-oxoisoindolin-2-yl)piperidine-2,6-dione]	93 nM	94%	> 10 µM	28%		
O=C1CCC(N2Cc3cc(-c4cc(CNCC5CCO5)ccn4)ccc3C2=O)C(=O)N1 (centres unmarked) [Example 129, 3-(5-(4-(((oxetan-2-ylmethyl)amino)methyl)pyridin-2-yl)-1-oxoisoindolin-2-yl)piperidine-2,6-dione]	232 nM	74%	> 10 µM	2%		
CC(C)OC1CN(Cc2ccnc(-c3ccc4c(c3)CN(C3CCC(=O)NC3=O)C4=O)c2)C1 (centres unmarked) [Example 130, 3-(5-(4-((3-isopropoxyazetidin-1-yl)methyl)pyridin-2-yl)-1-oxoisoindolin-2-yl)piperidine-2,6-dione]	244 nM	56%	> 10 µM	13%		
O=C1CCC(N2Cc3cc(-c4cc(CN[C@H](CCO)c5ccccc5)ccn4)ccc3C2=O)C(=O)N1 (stereo partly drawn) [Example 131, 3-(5-(4-((((R)-3-hydroxy-1-phenylpropyl)amino)methyl)pyridin-2-yl)-1-oxoisoindolin-2-yl)piperidine-2,6-dione]	14 nM	83%	> 10 µM	9%		
Cc1ccc(S(=O)(=O)C2CCN(Cc3ccnc(-c4ccc5c(c4)CN(C4CCC(=O)NC4=O)C5=O)c3)CC2)cc1 (centres unmarked) [Example 132, 3-(1-oxo-5-(4-((4-tosylpiperidin-1-yl)methyl)pyridin-2-yl)isoindolin-2-yl)piperidine-2,6-dione]	> 10000 nM	28%	> 10 µM	13%		
O=C1CCC(N2Cc3cc(-c4cc(CN5CCC[C@H]5c5ccccc5)ccn4)ccc3C2=O)C(=O)N1 (stereo partly drawn) [Example 133, 3-(1-oxo-5-(4-(((S)-2-phenylpyrrolidin-1-yl)methyl)pyridin-2-yl)isoindolin-2-yl)piperidine-2,6-dione]	75 nM	84%	> 10 µM	7%		
O=C1CCC(N2Cc3cc(-c4cc(CN5CCC[C@@H]5c5ccccc5)ccn4)ccc3C2=O)C(=O)N1 (stereo partly drawn) [Example 134, 3-(1-oxo-5-(4-(((R)-2-phenylpyrrolidin-1-yl)methyl)pyridin-2-yl)isoindolin-2-yl)piperidine-2,6-dione]	16 nM	95%	> 10 µM	19%		
O=C1CCC(N2Cc3cc(-c4cc(CN5CCC[C@@H](c6ccccc6)C5)ccn4)ccc3C2=O)C(=O)N1 (stereo partly drawn) [Example 135, 3-(1-oxo-5-(4-(((S)-3-phenylpiperidin-1-yl)methyl)pyridin-2-yl)isoindolin-2-yl)piperidine-2,6-dione]	1310 nM	60%	> 10 µM	4%		
CN(Cc1cccc(C(F)(F)F)c1)Cc1ccnc(-c2ccc3c(c2)CN(C2CCC(=O)NC2=O)C3=O)c1 (centres unmarked) [Example 148, 3-(5-(4-((methyl(3-(trifluoromethyl)benzyl)amino)methyl)pyridin-2-yl)-1-oxoisoindolin-2-yl)piperidine-2,6-dione]	238 nM		> 10 µM		75%	9%
